Legend:
Format in all cases: functional, Homo sapiens
U2OS [1] = experiment: (§1) Here: values are normalized to the negative (DMSO; defined as 0% autophagy induction) and positive (250nM Torin1; mTOR inhibitor; defined as maximal inducer of autophagy = 100%) control compounds and represented as % of autophagy induction. […] The impact of autophagy induction on cells is complex and depends on the affected target. As such, the magnitude of a phenotype may not be equally mirrored in the %-value of autophagy induction and vice versa. The dynamics of the induction may indicate the mode of activation: e.g. activation via phosphorylation or a signaling cascade may occur fast, while activation via transcription factors may take considerably longer. […] Of note, treatment concentrations may be sub-optimal for specific compounds, leading to false negative annotations.; conditions: Culturing Media DMEM, 1 % Penicillin/Streptomycin, 10% Fetal bovin serum Add-On: No, Screening Media Control DMEM, Screening Media Samples DMEM
U2OS [2] = experiment: as §1; conditions: Culturing Media DMEM, 1 % Penicillin/Streptomycin, 10% Fetal bovin serum Add-On: No, Screening Media Control DMEM, Screening Media Samples DMEM; remark: listed apart in the source
TERT-RPE1 = experiment: as §1; conditions: Culturing Media DMEM/F12 (1:1), 1 % Penicillin/Streptomycin, 10% Fetal bovin serum Add-On: No, Screening Media Control DMEM/F12 (1:1), Screening Media Samples DMEM/F12 (1:1)
[3] = Compound Concentration 0.5 uM, Timepoint 12 hours
[4] = Compound Concentration 0.5 uM, Timepoint 24 hours
[5] = Compound Concentration 0.5 uM, Timepoint 36 hours
[6] = Compound Concentration 0.5 uM, Timepoint 60 hours
[7] = Compound Concentration 2 uM, Timepoint 12 hours
[8] = Compound Concentration 2 uM, Timepoint 24 hours
[9] = Compound Concentration 2 uM, Timepoint 36 hours
[10] = Compound Concentration 2 uM, Timepoint 60 hours
[11] = Compound Concentration 10 uM, Timepoint 12 hours
[12] = Compound Concentration 10 uM, Timepoint 24 hours
[13] = Compound Concentration 10 uM, Timepoint 36 hours
[14] = Compound Concentration 10 uM, Timepoint 60 hours

| Compound | autophagy induction (U2OS [1]; [3]) | autophagy induction (U2OS [1]; [4]) | autophagy induction (U2OS [1]; [5]) | autophagy induction (U2OS [1]; [6]) | autophagy induction (U2OS [1]; [7]) | autophagy induction (U2OS [1]; [8]) | autophagy induction (U2OS [1]; [9]) | autophagy induction (U2OS [1]; [10]) | autophagy induction (U2OS [1]; [11]) | autophagy induction (U2OS [1]; [12]) | autophagy induction (U2OS [1]; [13]) | autophagy induction (U2OS [1]; [14]) | autophagy induction (U2OS [2]; [3]) | autophagy induction (U2OS [2]; [4]) | autophagy induction (U2OS [2]; [5]) | autophagy induction (U2OS [2]; [6]) | autophagy induction (U2OS [2]; [7]) | autophagy induction (U2OS [2]; [8]) | autophagy induction (U2OS [2]; [9]) | autophagy induction (U2OS [2]; [10]) | other results |
| --- | --- | --- | --- | --- | --- | --- | --- | --- | --- | --- | --- | --- | --- | --- | --- | --- | --- | --- | --- | --- | --- |
| C[C@]1(C(=O)N(CCCC(=O)O)Cc2cccc(Cl)c2)CCN1C(=O)c1csc2ccccc12 [GLPG-0974] | -10.0746% | -10.8247% | -4.098% | -4.538% | 5.378% | 3.105% | 6.198% | 1.696% | 3.852% | 1.348% | 0.8582% | -7.082% | 2.89% | 1.055% | -0.2915% | 0.8021% | 5.8948% | 0.1613% | -0.9761% | -1.363% | autophagy induction (U2OS [2]; [11]): 4.366%; autophagy induction (U2OS [2]; [12]): 0.7536%; autophagy induction (U2OS [2]; [13]): -0.03596%; autophagy induction (U2OS [2]; [14]): 0.5874%; autophagy induction (TERT-RPE1; [3]): -9.58%; autophagy induction (TERT-RPE1; [4]): -12.1708%; autophagy induction (TERT-RPE1; [5]): -12.5657%; autophagy induction (TERT-RPE1; [6]): -12.3909%; autophagy induction (TERT-RPE1; [7]): -4.812%; autophagy induction (TERT-RPE1; [8]): -8.05%; autophagy induction (TERT-RPE1; [9]): -10.5216%; autophagy induction (TERT-RPE1; [10]): -11.4009%; autophagy induction (TERT-RPE1; [11]): -6.234%; autophagy induction (TERT-RPE1; [12]): -7.969%; autophagy induction (TERT-RPE1; [13]): -9.743%; autophagy induction (TERT-RPE1; [14]): -14.0611% |
| Cc1cn2cc(CC(=O)N3CCC4(CC3)CN(Cc3ccc(-n5nccn5)cc3Cl)C4)nc2s1 | -19.4257% | -11.2688% | -14.8033% | -9.0407% | 2.217% | 1.46% | 0.9512% | 5.325% | -2.971% | 3.988% | 2.68% | 3.422% | 1.123% | -3.762% | -1.928% | -1.19% | -4.678% | -1.951% | -1.585% | -1.336% | autophagy induction (U2OS [2]; [11]): -3.342%; autophagy induction (U2OS [2]; [12]): -3.411%; autophagy induction (U2OS [2]; [13]): -3.208%; autophagy induction (U2OS [2]; [14]): -4.891%; autophagy induction (TERT-RPE1; [3]): -2.947%; autophagy induction (TERT-RPE1; [4]): -6.082%; autophagy induction (TERT-RPE1; [5]): -10.2542%; autophagy induction (TERT-RPE1; [6]): -15.5621%; autophagy induction (TERT-RPE1; [7]): -4.023%; autophagy induction (TERT-RPE1; [8]): -6.112%; autophagy induction (TERT-RPE1; [9]): -7.965%; autophagy induction (TERT-RPE1; [10]): -11.2776%; autophagy induction (TERT-RPE1; [11]): 6.864%; autophagy induction (TERT-RPE1; [12]): 5.224%; autophagy induction (TERT-RPE1; [13]): 5.8937%; autophagy induction (TERT-RPE1; [14]): 9.679% |
| O=C(O)C1CN(Cc2ccc(-c3nc4cc(Cc5ccccc5F)ccc4s3)c(F)c2)C1 | 3.797% | -4.944% | -8.688% | -8.1655% | 22.0588% | 16.1887% | 14.8366% | 4.458% | 26.4516% | 18.766% | 13.3531% | 2.726% | 4.055% | -0.4566% | -1.32% | -0.5858% | 1.76% | 0.3602% | -0.6521% | -0.7655% | autophagy induction (U2OS [2]; [11]): -1.302%; autophagy induction (U2OS [2]; [12]): -1.781%; autophagy induction (U2OS [2]; [13]): -1.367%; autophagy induction (U2OS [2]; [14]): -0.5842%; autophagy induction (TERT-RPE1; [3]): -8.917%; autophagy induction (TERT-RPE1; [4]): -10.8072%; autophagy induction (TERT-RPE1; [5]): -9.562%; autophagy induction (TERT-RPE1; [6]): -5.859%; autophagy induction (TERT-RPE1; [7]): -8.468%; autophagy induction (TERT-RPE1; [8]): -9.963%; autophagy induction (TERT-RPE1; [9]): -11.3812%; autophagy induction (TERT-RPE1; [10]): -13.3438%; autophagy induction (TERT-RPE1; [11]): -4.678%; autophagy induction (TERT-RPE1; [12]): -6.178%; autophagy induction (TERT-RPE1; [13]): -7.73%; autophagy induction (TERT-RPE1; [14]): -6.2118% |

Source: ChEMBL document CHEMBL5724696, “Autophagy assay results for EUbOPEN Chemogenomics Library” (2024)
